{
  "source": "paper PMC4579064",
  "about": "(Toxicology and applied pharmacology, 2015)",
  "key": {"CYP2E1": {"target": "CYP2E1 (Homo sapiens, UniProt P05181)", "sequence (P05181 whole entry, one chain of several)": "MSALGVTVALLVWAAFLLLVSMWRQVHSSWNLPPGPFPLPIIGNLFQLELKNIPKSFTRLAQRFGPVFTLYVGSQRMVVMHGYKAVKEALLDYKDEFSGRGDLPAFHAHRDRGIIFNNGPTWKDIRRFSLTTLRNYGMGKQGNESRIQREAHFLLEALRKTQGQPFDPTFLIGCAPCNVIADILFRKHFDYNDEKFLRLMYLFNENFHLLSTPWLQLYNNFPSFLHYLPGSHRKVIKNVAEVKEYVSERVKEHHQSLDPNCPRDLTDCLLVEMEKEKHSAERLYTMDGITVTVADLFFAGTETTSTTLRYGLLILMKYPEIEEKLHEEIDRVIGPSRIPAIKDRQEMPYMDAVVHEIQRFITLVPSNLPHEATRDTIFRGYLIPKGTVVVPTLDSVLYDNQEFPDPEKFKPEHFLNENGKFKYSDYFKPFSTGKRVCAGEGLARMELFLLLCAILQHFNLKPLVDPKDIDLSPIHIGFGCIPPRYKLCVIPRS", "test": "recombinant CYP activity with fluorogenic substrate", "assay_type": "biochemical"}, "CYP2C8": {"target": "T1, CYP2C8 (Homo sapiens, UniProt P10632)", "T1 sequence (P10632 1-490)": "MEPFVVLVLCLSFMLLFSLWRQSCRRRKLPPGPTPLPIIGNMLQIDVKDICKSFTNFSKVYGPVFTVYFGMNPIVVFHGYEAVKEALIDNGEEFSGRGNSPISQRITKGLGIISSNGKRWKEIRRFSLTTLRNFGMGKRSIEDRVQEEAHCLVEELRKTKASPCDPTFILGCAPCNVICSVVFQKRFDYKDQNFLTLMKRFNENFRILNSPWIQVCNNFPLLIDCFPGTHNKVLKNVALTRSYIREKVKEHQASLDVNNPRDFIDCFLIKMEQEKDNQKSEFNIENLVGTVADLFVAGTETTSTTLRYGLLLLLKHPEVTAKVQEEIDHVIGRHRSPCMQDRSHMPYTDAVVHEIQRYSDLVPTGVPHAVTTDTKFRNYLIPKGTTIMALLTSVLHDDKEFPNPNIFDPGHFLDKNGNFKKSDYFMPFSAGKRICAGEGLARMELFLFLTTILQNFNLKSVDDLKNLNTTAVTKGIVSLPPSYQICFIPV", "test": "recombinant CYP activity with fluorogenic substrate", "assay_type": "biochemical"}, "CYP3A4": {"target": "CYP3A4 (Homo sapiens, UniProt P08684)", "sequence (P08684 2-503 limits assumed)": "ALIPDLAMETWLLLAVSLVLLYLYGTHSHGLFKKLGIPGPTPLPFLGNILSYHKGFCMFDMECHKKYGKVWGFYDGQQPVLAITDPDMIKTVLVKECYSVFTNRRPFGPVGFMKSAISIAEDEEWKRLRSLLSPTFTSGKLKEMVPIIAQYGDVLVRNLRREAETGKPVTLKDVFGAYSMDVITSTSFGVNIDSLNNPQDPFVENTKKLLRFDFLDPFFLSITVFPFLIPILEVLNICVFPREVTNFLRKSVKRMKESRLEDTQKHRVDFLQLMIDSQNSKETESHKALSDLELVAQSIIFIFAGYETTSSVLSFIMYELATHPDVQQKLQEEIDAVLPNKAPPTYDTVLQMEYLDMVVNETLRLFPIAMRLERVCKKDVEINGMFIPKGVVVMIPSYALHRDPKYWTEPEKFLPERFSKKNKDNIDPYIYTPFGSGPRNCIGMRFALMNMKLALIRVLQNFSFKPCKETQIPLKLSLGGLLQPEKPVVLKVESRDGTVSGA"}, "CYP2B6": {"target": "T2, CYP2B6 (Homo sapiens, UniProt P20813)", "T2 sequence (P20813 1-491)": "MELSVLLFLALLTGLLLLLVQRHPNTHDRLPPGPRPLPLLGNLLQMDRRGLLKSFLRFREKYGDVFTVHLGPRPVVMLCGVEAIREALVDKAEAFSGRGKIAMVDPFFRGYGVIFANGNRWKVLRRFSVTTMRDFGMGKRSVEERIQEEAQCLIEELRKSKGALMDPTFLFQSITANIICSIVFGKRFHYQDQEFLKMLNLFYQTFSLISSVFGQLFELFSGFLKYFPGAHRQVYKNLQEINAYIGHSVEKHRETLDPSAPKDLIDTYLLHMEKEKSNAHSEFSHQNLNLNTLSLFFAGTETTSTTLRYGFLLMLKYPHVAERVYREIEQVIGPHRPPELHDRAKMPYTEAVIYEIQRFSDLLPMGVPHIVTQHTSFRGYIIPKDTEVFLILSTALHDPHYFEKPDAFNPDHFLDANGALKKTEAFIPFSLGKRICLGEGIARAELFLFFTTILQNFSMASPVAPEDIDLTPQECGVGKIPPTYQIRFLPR", "test": "recombinant CYP activity with fluorogenic substrate", "assay_type": "biochemical"}, "CYP2A6": {"target": "T3, CYP2A6 (Homo sapiens, UniProt P11509)", "T3 sequence (P11509 1-494)": "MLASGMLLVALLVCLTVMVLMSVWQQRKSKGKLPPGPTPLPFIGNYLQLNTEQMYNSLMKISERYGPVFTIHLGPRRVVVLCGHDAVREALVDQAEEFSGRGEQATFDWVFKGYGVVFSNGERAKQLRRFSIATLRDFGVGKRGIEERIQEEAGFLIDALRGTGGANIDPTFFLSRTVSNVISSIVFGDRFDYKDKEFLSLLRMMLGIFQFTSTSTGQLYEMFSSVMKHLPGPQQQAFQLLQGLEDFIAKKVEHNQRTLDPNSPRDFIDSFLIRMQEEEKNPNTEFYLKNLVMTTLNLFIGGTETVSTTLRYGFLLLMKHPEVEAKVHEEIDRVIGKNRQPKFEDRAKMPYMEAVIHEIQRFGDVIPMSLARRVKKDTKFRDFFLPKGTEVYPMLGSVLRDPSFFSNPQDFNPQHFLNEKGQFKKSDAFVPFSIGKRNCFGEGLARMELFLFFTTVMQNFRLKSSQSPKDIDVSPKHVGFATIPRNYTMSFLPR", "test": "recombinant CYP activity with fluorogenic substrate", "assay_type": "biochemical"}, "CYP2C9": {"target": "CYP2C9 (Homo sapiens, UniProt P11712)", "sequence (P11712 whole entry, one chain of several)": "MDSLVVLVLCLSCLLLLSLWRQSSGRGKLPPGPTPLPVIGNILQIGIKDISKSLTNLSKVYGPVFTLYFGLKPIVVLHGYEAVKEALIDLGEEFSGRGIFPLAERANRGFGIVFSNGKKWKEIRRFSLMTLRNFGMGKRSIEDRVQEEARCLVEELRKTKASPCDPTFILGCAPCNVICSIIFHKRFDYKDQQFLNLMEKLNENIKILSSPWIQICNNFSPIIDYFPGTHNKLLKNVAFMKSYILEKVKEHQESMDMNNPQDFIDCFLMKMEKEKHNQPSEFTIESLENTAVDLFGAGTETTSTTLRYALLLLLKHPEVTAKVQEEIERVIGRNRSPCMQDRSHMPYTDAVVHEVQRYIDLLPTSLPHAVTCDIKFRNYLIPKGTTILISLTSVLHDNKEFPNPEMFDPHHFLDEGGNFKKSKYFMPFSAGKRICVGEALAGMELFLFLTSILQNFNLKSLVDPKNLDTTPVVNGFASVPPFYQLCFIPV", "test": "recombinant CYP activity with fluorogenic substrate", "assay_type": "biochemical"}, "recombinant human CPR": {"target": "T4, recombinant human CPR (Homo sapiens, UniProt P16435)", "T4 sequence (P16435 1-677)": "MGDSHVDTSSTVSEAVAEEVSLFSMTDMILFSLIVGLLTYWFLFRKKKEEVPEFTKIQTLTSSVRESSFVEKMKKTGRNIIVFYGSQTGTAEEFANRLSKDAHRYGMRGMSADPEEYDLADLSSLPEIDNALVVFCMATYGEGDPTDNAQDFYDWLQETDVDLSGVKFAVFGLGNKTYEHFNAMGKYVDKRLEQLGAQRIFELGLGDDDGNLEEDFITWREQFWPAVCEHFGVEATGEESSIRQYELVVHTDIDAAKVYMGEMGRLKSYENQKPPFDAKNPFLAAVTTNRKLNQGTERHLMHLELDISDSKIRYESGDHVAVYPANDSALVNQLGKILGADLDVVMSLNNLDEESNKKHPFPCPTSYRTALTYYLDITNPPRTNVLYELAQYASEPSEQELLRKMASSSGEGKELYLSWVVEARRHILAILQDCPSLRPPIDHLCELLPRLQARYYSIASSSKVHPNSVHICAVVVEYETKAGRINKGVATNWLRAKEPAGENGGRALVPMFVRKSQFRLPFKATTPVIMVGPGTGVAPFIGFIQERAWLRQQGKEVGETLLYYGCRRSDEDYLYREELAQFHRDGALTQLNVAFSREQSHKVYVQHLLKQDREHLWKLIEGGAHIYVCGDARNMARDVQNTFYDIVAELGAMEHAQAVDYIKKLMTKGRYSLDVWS", "test": "CPR-mediated redox cycling, H2O2 formation", "assay_type": "biochemical", "settings": "menadione as redox cycling substrate of CPR; Amplex Red"}},
  "data": [
    {"smiles": "CC1=CC(=O)c2ccccc2C1=O", "note": "[menadione, 2-methylnaphthalene-1,4-dione]", "values": [
      {"measurement": "IC50", "setting": "CYP2E1", "result": "5.58 ± 1.22", "unit": "µM"},
      {"measurement": "IC50", "setting": "CYP2C8", "result": "2.36 ± 0.11", "unit": "µM"},
      {"measurement": "paraoxon formation", "setting": "CYP3A4", "result": "marked decrease"},
      {"measurement": "IC50", "setting": "CYP2B6", "result": "5.76 ± 0.78", "unit": "µM"},
      {"measurement": "IC50", "setting": "CYP2A6", "result": "8.01 ± 0.62", "unit": "µM"},
      {"measurement": "IC50", "setting": "CYP2C9", "result": "8.91 ± 0.57", "unit": "µM"},
      {"measurement": "Vmax for H2O2 formation", "setting": "recombinant human CPR", "result": 4.4, "unit": "µmol/min/mg CPR protein"}
    ]}
  ]
}
